{"source": "patent US5015631A", "about": "“Repairing agent for cells and tissues” (MECT Corporation, priority 1987, dated 1991)", "key": {"[1]": {"tested_on": "nasal mucous membrane of rabbits", "experiment": "Subacute disappearance of cilia from nasal mucous membrane of rabbits and degeneration of the epithelium induced by exposure to sulfur dioxide; on disappearance of cilia: key: -: Unchanged; +: Slight; ++: Moderate change; +++: Severe", "type": "in vivo, Male New Zealand White rabbits", "procedure": "Effects on subacute disappearance of cilia from nasal mucous membrane of rabbits and degeneration of the epithelium thereof induced by exposure to sulfur dioxide:\nMale New Zealand White rabbits weighing 1.8 to 2.2 kg were used.\n(§1) Sodium N-acetylneuraminate (a product of MECT Corporation) was used.\nThe rabbits were exposed to sulfur dioxide by means of a sulfur dioxide-exposing apparatus for 2 hours a day continuously for 5 weeks. The sulfur dioxide concentrations were 70 to 150 ppm in the first and second weeks and 200 to 300 ppm in the third to fifth weeks. After the third week, the inhalation of the material or physiological saline by means of an ultrasonic nebulizer (TUR-3200: a product of Nippon Koden Co., Ltd.) was made immediately before the exposure to sulfur dioxide.\nGroup I: inhalation of 25 mg/kg of sodium N-acetylneuraminate for 2 minutes.\nGroup II: inhalation of 1 ml of physiological saline for 2 minutes.\nEach group comprised six rabbits.\nFive weeks after completion of the exposure to sulfur dioxide, the rabbits were killed by venesection and the intranarial changes of them were examined by a microscopic observation and the results were compared with one another."}, "rats": {"tested_on": "rats", "experiment": "Acute toxicity test in rats", "type": "in vivo", "procedure": "(§2) The acute toxicity tests of sodium N-acetylneuraminate to mice, rats and guinea pigs given by oral administration or subcutaneous injection, intraperitoneal injection, intravenous injection or inhalation, were conducted as follows:\n(§3) 20 w/v % (solution in distilled water)\nIn the inhalation, the subjects were exposed to a spray of the compound o"}, "[2]": {"tested_on": "nasal mucous membranes of rats", "experiment": "Acute disappearance of cilia from nasal mucous membranes of rats and degeneration of the epithelium induced by exposure to sulfur dioxide", "type": "in vivo, Male Wistar rats", "details": "for Disappearance of cilia / Disappearance of epithelium / Monolayer squamous metaplasia of epithelium: per animal", "procedure": "The effects of test samples on acute disappearance of cilia from nasal mucous membranes of rats and the degeneration of the epithelium induced by exposure to sulfur dioxide:\nMale Wistar rats weighing 180 to 200 g were used.\nas §1\nThe rats were exposed to 400 ppm of sulfur dioxide for 4 hours. 30 minutes after the exposure, the rats were caused to inhale the test sample or physiological saline as follows:\nGroup I: inhalation of 300 mg/m^3 of sodium N-acetylneuraminate for 1 hour.\nGroup II: inhalation of 100 mg/m^3 of sodium N-acetylneuraminate for 1 hour.\nGroup III: inhalation of 20 ml/m^3 of the physiological saline for 1 hour.\nEach group comprised 5 rats.\n24 hours after the inhalation of the materials or physiological saline, the rats were killed and their intranarial changes were examined by a microscopic observation and the results were compared with one another."}, "Stability versus pH": {"experiment": "Stability versus pH", "type": "physicochemical"}, "mice [3]": {"tested_on": "mice", "experiment": "Acute toxicity test in mice", "type": "in vivo", "details": "male, 20160 min", "procedure": "as §2, §3"}, "mice [4]": {"tested_on": "mice", "experiment": "Simple acute toxicity test by intravenous injection in mice", "type": "in vivo, Male ddy mice", "details": "3 mice", "procedure": "Simple acute toxicity test:\nSimple acute toxicity tests of the materials were conducted by intraveous injections for the mice as follows:\nLithium, potassium, barium and magnesium N-acetylneuraminates (products of MECT Corporation) were used.\nWeight of the animal in the initial stage of the test: 17.7 to 21.1 g\nNumber of mice for each level: 3\n(3) Room temperature: 23±1° C., humidity: 55±7%\n(4) Route of administration: intravenous injection\nThe material was dissolved in the physiological saline. The concentration of the dose solution was adjusted so that 0.2 ml of the dose solution was administered per 20 g of the body weight of the mice. The solution was given to a tail of each mouse by the intravenous injection. The dose was 500, 1000 or 2000 mg/kg.\nThe general symptoms and death were observed from immediately after the administration to seven days after the administration."}, "[5]": {"details": "Group I: inhalation 25 mg/kg for 2 minutes, per animal"}, "[6]": {"details": "Group I: inhalation 300 mg/m^3 for 1 hour"}, "[7]": {"details": "Group II: inhalation 100 mg/m^3 for 1 hour"}}, "note": "Where two headings read alike, the source gives them in different places."}
{"molecule": "CC(=O)N[C@H]1[C@H]([C@H](O)[C@H](O)CO)OC(O)(C(=O)[O-])C[C@@H]1O.[Na+]", "note": "(some centres unmarked); on Disappearance of epithelium: key: -: Unchanged; +: Slight; ++: Moderate change; +++: Severe; on Monolayer squamous metaplasia of epithelium: key: -: Unchanged; +: Slight; ++: Moderate change; +++: Severe; on disappearance of cilia: key: -: Unchanged; +: Slight; ++: Moderate change; +++: Severe", "values": [{"measurement": "Squamous metaplasia of epithelium, comparison of groups", "setting": "[1]; Group I (25 mg/kg) versus Group II (physiological saline)", "result": "more serious in Group II than in Group I"}, {"measurement": "Disappearance of cilia", "setting": "[1]; [5]", "result": "- and + and ++"}, {"measurement": "Squamous metaplasia of epithelium", "setting": "[1]; [5]", "result": "- and + and ++"}, {"measurement": "Inhibition of subacute disappearance of cilia and squamous metaplasia of epithelium / repair of cells and tissues of nasal mucous membranes", "setting": "[1]; sulfur dioxide exposure, 25 mg/kg inhalation", "result": "remarkable effect of inhibiting"}, {"measurement": "LD50", "setting": "rats", "result": "> 5,000 mg/kg"}, {"measurement": "LD50", "setting": "rats; rats, female, inhalation, spray for one hour", "result": "> 4,000 mg/m^3"}, {"measurement": "LD50", "setting": "rats; rats, male, inhalation, spray for one hour", "result": "> 4,000 mg/m^3"}, {"measurement": "LD50", "setting": "rats; rats, male, intraperitoneal, 20160 min", "result": "> 5,000 mg/kg"}, {"measurement": "LD50", "setting": "rats; rats, male, intravenous, 20160 min", "result": "> 5,000 mg/kg"}, {"measurement": "LD50", "setting": "rats; rats, male, oral, 20160 min", "result": "> 5,000 mg/kg"}, {"measurement": "Disappearance of cilia", "setting": "[2]; [6]", "result": "++ and +"}, {"measurement": "Disappearance of epithelium", "setting": "[2]; [6]", "result": "-"}, {"measurement": "Monolayer squamous metaplasia of epithelium", "setting": "[2]; [6]", "result": "-"}, {"measurement": "Disappearance of cilia", "setting": "[2]; [7]", "result": "+ and - and ++"}, {"measurement": "Disappearance of epithelium", "setting": "[2]; [7]", "result": "-"}, {"measurement": "Monolayer squamous metaplasia of epithelium", "setting": "[2]; [7]", "result": "-"}, {"measurement": "Intranarial changes", "setting": "[2]; Groups I and II (300 and 100 mg/m^3), compared with Group III (physiological saline)", "result": "only the disappearance of cilia was observed and the degree of the disappearance was lower than that of Group III"}, {"measurement": "Inhibition of acute disappearance of cilia, monolayer squamous metaplasia and disappearance of epithelium / degeneration of nasal mucous membranes", "setting": "[2]; sulfur dioxide exposure, rats", "result": "remarkable effect of inhibiting"}, {"measurement": "pH range of greatest stability", "setting": "Stability versus pH", "result": "5.5 to 6.0"}, {"measurement": "LD50", "setting": "mice [3]; intraperitoneal", "result": "> 5,000 mg/kg"}, {"measurement": "LD50", "setting": "mice [3]; intravenous", "result": "> 5,000 mg/kg"}, {"measurement": "LD50", "setting": "mice [3]; oral", "result": "> 5,000 mg/kg"}, {"measurement": "LD50", "setting": "mice [3]; subcutaneous", "result": "> 5,000 mg/kg"}]}
{"molecule": "CC(=O)N[C@H]1[C@H]([C@H](O)[C@H](O)CO)OC(O)(C(=O)[O-])C[C@@H]1O.[Li+]", "note": "(some centres unmarked) [Lithium N-acetylneuraminate]", "values": [{"measurement": "Final death rate", "setting": "mice [4]; 500 mg/kg i.v.", "result": "0/3"}, {"measurement": "Number of death with the elapse of time", "setting": "mice [4]; 500 mg/kg i.v., 1 hr", "result": 0}, {"measurement": "Number of death with the elapse of time", "setting": "mice [4]; 500 mg/kg i.v., 3 hrs", "result": 0}, {"measurement": "Number of death with the elapse of time", "setting": "mice [4]; 500 mg/kg i.v., 6 hrs", "result": 0}, {"measurement": "Number of death with the elapse of time", "setting": "mice [4]; 500 mg/kg i.v., 24 hrs", "result": 0}, {"measurement": "Number of death with the elapse of time", "setting": "mice [4]; 500 mg/kg i.v., 2 days", "result": 0}, {"measurement": "Number of death with the elapse of time", "setting": "mice [4]; 500 mg/kg i.v., 3 days", "result": 0}, {"measurement": "Number of death with the elapse of time", "setting": "mice [4]; 500 mg/kg i.v., 4 days", "result": 0}, {"measurement": "Number of death with the elapse of time", "setting": "mice [4]; 500 mg/kg i.v., 5 days", "result": 0}, {"measurement": "Number of death with the elapse of time", "setting": "mice [4]; 500 mg/kg i.v., 6 days", "result": 0}, {"measurement": "Number of death with the elapse of time", "setting": "mice [4]; 500 mg/kg i.v., 7 days", "result": 0}, {"measurement": "Final death rate", "setting": "mice [4]; 1000 mg/kg i.v.", "result": "0/3"}, {"measurement": "Number of death with the elapse of time", "setting": "mice [4]; 1000 mg/kg i.v., 1 hr", "result": 0}, {"measurement": "Number of death with the elapse of time", "setting": "mice [4]; 1000 mg/kg i.v., 3 hrs", "result": 0}, {"measurement": "Number of death with the elapse of time", "setting": "mice [4]; 1000 mg/kg i.v., 6 hrs", "result": 0}, {"measurement": "Number of death with the elapse of time", "setting": "mice [4]; 1000 mg/kg i.v., 24 hrs", "result": 0}, {"measurement": "Number of death with the elapse of time", "setting": "mice [4]; 1000 mg/kg i.v., 2 days", "result": 0}, {"measurement": "Number of death with the elapse of time", "setting": "mice [4]; 1000 mg/kg i.v., 3 days", "result": 0}, {"measurement": "Number of death with the elapse of time", "setting": "mice [4]; 1000 mg/kg i.v., 4 days", "result": 0}, {"measurement": "Number of death with the elapse of time", "setting": "mice [4]; 1000 mg/kg i.v., 5 days", "result": 0}, {"measurement": "Number of death with the elapse of time", "setting": "mice [4]; 1000 mg/kg i.v., 6 days", "result": 0}, {"measurement": "Number of death with the elapse of time", "setting": "mice [4]; 1000 mg/kg i.v., 7 days", "result": 0}, {"measurement": "Final death rate", "setting": "mice [4]; 2000 mg/kg i.v.", "result": "0/3"}, {"measurement": "Number of death with the elapse of time", "setting": "mice [4]; 2000 mg/kg i.v., 1 hr", "result": 0}, {"measurement": "Number of death with the elapse of time", "setting": "mice [4]; 2000 mg/kg i.v., 3 hrs", "result": 0}, {"measurement": "Number of death with the elapse of time", "setting": "mice [4]; 2000 mg/kg i.v., 6 hrs", "result": 0}, {"measurement": "Number of death with the elapse of time", "setting": "mice [4]; 2000 mg/kg i.v., 24 hrs", "result": 0}, {"measurement": "Number of death with the elapse of time", "setting": "mice [4]; 2000 mg/kg i.v., 2 days", "result": 0}, {"measurement": "Number of death with the elapse of time", "setting": "mice [4]; 2000 mg/kg i.v., 3 days", "result": 0}, {"measurement": "Number of death with the elapse of time", "setting": "mice [4]; 2000 mg/kg i.v., 4 days", "result": 0}, {"measurement": "Number of death with the elapse of time", "setting": "mice [4]; 2000 mg/kg i.v., 5 days", "result": 0}, {"measurement": "Number of death with the elapse of time", "setting": "mice [4]; 2000 mg/kg i.v., 6 days", "result": 0}, {"measurement": "Number of death with the elapse of time", "setting": "mice [4]; 2000 mg/kg i.v., 7 days", "result": 0}]}
